What was measured:
opiate receptors = assay: Opiate binding assay (displacement of 3H-Naloxone); set-up: species or system rat; conditions: Table 1, 3H-Naloxone, rat brain membranes
Experimental: The test compounds were evaluated for their ability to displace the binding of ^3 H-Naloxone to opiate receptors isolate from rat brain. Male rats [COBS CD(SD)BR] obtained from Charles River Laboratories (Portage, MI) were sacrificed by cervical dislocation. A purified homogenate of receptor membranes was prepared from the brains according to the method described by Chang and Cuatrecasas. (K.-J. Chang and P. Cuatrecases. Multiple Opiate Receptors: Enkephalins And Morphine Bind To Receptors Of Different Specificity. J. Biol. Chem. 254, 2610-2618 (1979).) The brains were homogenized in 10 volumes of 0.32M sucrose and centrifuged twice at 6,000×g for 15 minutes. Following centrifugation of the supernatants at 40,000×g for 30 minutes, the pellets were allowed to swell, then centrifuged at 6,000 and 40,000×g. This process was repeated. The final pellet was resuspended in 2 volumes of 50 mM tris HCl (pH 7.4). The homogenate was assayed for protein content according to the method of Itzhaki and Gill. R. F. Itzhaki and D. M. Gill. A Micro-Biuret Method for Estimating Proteins. Anal. Biochem. 9, […] (1964).
The binding of the test compounds to the receptor membrane preparation was measured using a modification of the method of Pert and Snyder. C. B. Pert and S. H. Snyder. Properties of Opiate-Receptor Binding in Rat Brain. Proc. Natl. Acad. Sci. 70, 2243-2247 (1973). The receptor assay was run using 1 nM ^3 H-Naloxone and 2 ml of tissue homogenate (0.5 mg/ml protein concentration). Levorphanol (1×10^-5 M) was used as the displacer for non-specific binding. Both the displacer and the test compounds were added in 0.02 ml volumes. The assay was run in 0.05M tris HCl (pH 7.4) ±100 mM NaCl. Total assay volume was 2.03 ml.
Samples were incubated at 25° C. for 60 min., cooled on ice 5 min. and subsequently filtered over Whatman GF/C glass fiber filters with 2.4 ml washes of cold buffer. The filters were then solubilized in 1 ml of NCS at 50° C. for 1 hour. After solubilization, the pH was adjusted with 0.1 ml of glacial acetic acid, 10 ml of PCS was added and the samples were counted in a Nuclear Chicago Mark II liquid scintillation counter. This method was used for the following test compounds: Example 4, Example 5, Example 27, Example 28, Example 38, Example 39, and the prior art compound (4).
A modification of this method was used for the following test compounds: Example 16, Example 17, Example 21, Example 22, Example 24, Example 30, Example 31. In this modification, the total assay volume was adjusted to 1.0 ml. Samples were cooled on ice for 10 minutes and dried at 50° C. for 30 minutes, then 10 mls of PCS was added and the samples counted in a liquid scinitillation counter.
The IC50 values, the concentration of the test compounds which inhibited ^3 H-Naloxone specific binding to the opiate receptor by 50%, were obtained from log-probit plots of concentration-response curves. D. J. Finney. Probit Analysis. Cambridge University Press, London, 1947.

mice = assay: Writhing assay (phenylbenzoquinone); assay type: in vivo, mouse; set-up: key to Writhing Mouse Subc., effect of the screening dose / Writhing Mouse Oral, effect of the screening dose: Active: The test compound was rated active if writhing was inhibited (as described) in 5 of 10 mice; conditions: Table 1; for Writhing Mouse Oral, effect of the screening dose: screening dose 10 mg/kg p.o.; for Writhing Mouse Subc., effect of the screening dose: screening dose 10 mg/kg s.c.
Experimental: Male Charles River albino mice (CD-1/HAM/1LR) weighing between 20 and 30 grams were used. Thirty minutes after subcutaneous or intragastric administration of the test compound (0.1 ml/10 gram body weight), 0.025% (w/v) phenylbenzoquinone was injected intraperitoneally (0.1 ml/10 gram body weight). Five minutes later, each mouse was placed in a large glass beaker and the number of writhes that occurred in the subsequent ten minutes is counted. A writhe consisted of dorsoflexion of the back, extension of the hindlimbs, and strong contraction of the abdominal musculature. The test compound was considered to have produced analgesia in a mouse if the number of writhes elicited by phenylbenzoquinone was equal to or less than one-half the median number of writhes recorded for the saline-treated group that day. The results were expressed as the number of mice (out of a possible ten) in which the test compound produced analgesia. The test compound was rated active if writhing was inhibited (as described) in 5 of 10 mice.
The receptor binding and biological properties of the following compounds of this invention are illustrated in Tables 1 and 2 utilizing the previously described opiate binding, hot plate, tail flick, writhing assay, cholera test or hypertensive test. The standard screening dose for the hot plate test of Table 1 was 10 mg/kg i.v. and for the writhing assay was 10 mg/kg s.c. and p.o.

[1] = test system: spontaneous hypertensive rats (SHR); assay: Hypertensive test in spontaneous hypertensive rats (SHR); assay type: in vivo, rat; set-up: key to Antihypertensive Properties, Result: Active: Any compound that resulted in a decrease in arterial blood pressure of 20 mm Hg or greater was considered active; conditions: Table 3; 10 mg/kg intravenously, one unanesthetized male SHR
Experimental: A compound's ability to act as an antihypertensive agent was determined using spontaneous hypertensive rats (SHR). Male SHR were maintained in-house for 1 or more weeks before use and were between 11 and 16 weeks old. The test compound was administered intravenously and the initial mean arterial blood pressure was measured directly via an arterial catheter implanted immediately before administration of the compound. Blood pressure readings were made 5, 10 and 15 minutes after administration of the compound. […] Statistical comparisons were made using the unpaired student's test.
The following compounds of the invention were evaluated for their antihypertensive properties using the spontaneous hypertensive rat (SHR). […] The SHR test was essentially that described earlier. Each compound listed in Table 3, was administered intravenously to one unanesthetized, male, spontaneously hypertensive rat; the dosage was 10 mg/kg.

Molecule	IC50 (opiate receptors)	Writhing Mouse Oral, effect of the screening dose (mice)	Writhing Mouse Subc., effect of the screening dose (mice)	Antihypertensive Properties, Result [1]	IC50 (opiate receptors; hydrochloride)	ED50 (mice; Mus musculus, sc, subcutaneous, read-out: Writhing Mouse Subc. (ED50))	Writhing Mouse Oral (ED50) (mice; oral, hydrochloride)
2,6-dimethyltyrosyl-N-(3-cyclohexylpropyl)-D-alaninamide, (2-methylpropyl)carbonate (ester) [Example 27]	2.7 nM	Active	Active	–	–	–	–
2,6-dimethyltyrosyl-N-(4-phenylbutyl)-D-alaninamide, hydrochloride [Example 43]	–	Active	Active	–	–	–	–
2,6-dimethyltyrosyl-N-[3-(2,6-dimethylphenyl)propyl]-D-alaninamide hydrochloride [Example 38]	160 nM	Active	Active	–	–	–	–
2,6-dimethyltyrosyl-N-[3-(2,6-dimethylphenyl)propyl]-D-alaninamide, hydrochloride [Example 39]	0.5 nM	Active	Active	–	–	–	–
2-methyltyrosyl-N-(3-phenylpropyl)-D-alaninamide, hydrochloride [Example 16]	–	–	–	Active	–	–	–
Cc1cc(O)cc(C)c1C[C@H](N)C(=O)N[C@H](C)C(=O)NCCCc1ccccc1.Cl [Example 4, 2,6-dimethyltyrosyl-N-(3-phenylpropyl)-D-alaninamide hydrochloride]	–	–	–	Active	50 nM	0.58 mg/kg	2.39 mg/kg

— patent US4599325A, “Substituted tyrosyl alanine dipeptide amides” (G. D. Searle & Co., priority 1985, dated 1986)
